Source: patent US11944702B2, “Skin care composition and method of making a skin care composition” (L'OREAL, priority 2017, dated 2024)

Experiment: Stability of mixed skin care composition (base + booster compositions)
Format: physicochemical
Conditions: combination results in incompatible pH and separation of phases
Experimental: Referring again to FIG. 2, after the ingredient is determined, a compatibility profile is determined corresponding to the previously selected ingredients (step 207). The compatibility profile includes an inclusion or exclusion of additional ingredients to the formulation. That is, the compatibility profile provides acceptable combinations of booster composition and base composition combinations made with the previously selected ingredients that forms stable and efficacious skin care compositions. […] “Stable”, “Stability” and grammatical variations thereof, indicate a macroscopic homogeneous substance that doesn't have variation in texture or varying phases physically noticeable. In addition, microscopically the emulsion of the composition has the appearance of being homogeneous with the droplets and no dynamic changes in the microscope image. […] In addition, compatibility may include ingredients that retain efficacy of individual ingredients when combined with the other ingredients remain present in the formula over time periods and exposures to varying temperature.
Examples and comparative examples below are provided by the cosmetic dispending system as shown and described above. TABLE 3 includes the composition of Base B, the hydroalcoholic base, according to an embodiment of the disclosure.

compatibility with hydroalcoholic base: not compatible
Structure (SMILES): CC1=C(/C=C/C(C)=C/C=C/C(C)=C/CO)C(C)(C)CCC1 [retinol]
